Laboratory results published in patent US9034901B2, “Pitavastatin calcium and process for its preparation” (Cadila Healthcare Limited, priority 2010, dated 2015).
Structures can show the parent of a compound that is named as a salt. Where two headings read alike, the source gives them in different places.

Key:
[1] = system: patients with hypercholesterolaemia; settings: cited from earlier work
[2] = Stability of pitavastatin calcium crystalline form at 40° C./75% RH and 25° C./60% RH (water by KF, related substances); assay type: physicochemical
Experimental: In general, the stability of pitavastatin calcium crystalline form having water content 5% wt/wt at 40° C./75% RH and 25° C./60% RH is shown in Table-1.

[3] = cited from earlier work; for purity / water content / total impurities: US '987 A1 Table 1; for total impurities: in % (unit assumed)
[4] = 1 month, 40° C. ± 2° C., RH 75% ± 5%
[5] = 2 month, 40° C. ± 2° C., RH 75% ± 5%
[6] = 3 month, 25° C. ± 2° C., RH 60% ± 5%
[7] = 3 month, 40° C. ± 2° C., RH 75% ± 5%
[8] = kept at 40° C. (air tight), after 90 days
[9] = kept at 40° C. (air tight), initial
[10] = kept in open air, after 90 days

Question: With `O=C(O)C[C@H](O)C[C@H](O)/C=C/c1c(C2CC2)nc2ccccc2c1-c1ccc(F)cc1` [pitavastatin calcium, (3R,5S)-7-[2-cyclopropyl-4-(4-flourophenyl)-quinolin-3-yl]-3,5-dihydroxy-6-(E)-heptenoic acid calcium salt] as the compound, how does the safety and tolerability ([1]; treatment of patients with hypercholesterolaemia) read?
Answer: safe and well tolerated

Question: What about the Related Substances: 5-oxo [2, 4] of the same compound?
Answer: 0.11%

Question: And the Related Substances: Desflouro [2, 4]?
Answer: 0.05%

Question: And the Related Substances: Diastereomer [2, 4]?
Answer: 0.11%

Question: What about the Related Substances: Total Impurities [2, 4] of the same compound?
Answer: 0.28%

Question: What about the “Water by KF” value [2, 4] of the same compound?
Answer: 2.9 % w/w

Question: What about the Related Substances: 5-oxo [2, 5] of the same compound?
Answer: 0.15%

Question: What about the Related Substances: Desflouro [2, 5] of the same compound?
Answer: 0.05%

Question: And the Related Substances: Diastereomer [2, 5]?
Answer: 0.11%

Question: What about the Related Substances: Total Impurities [2, 5] of the same compound?
Answer: 0.31%

Question: And the “Water by KF” value [2, 5]?
Answer: 4.3 % w/w

Question: And the Related Substances: 5-oxo [2, 6]?
Answer: 0.12%

Question: What about the Related Substances: Desflouro [2, 6] of the same compound?
Answer: 0.05%

Question: What about the Related Substances: Diastereomer [2, 6] of the same compound?
Answer: 0.12%

Question: And the Related Substances: Lactone [2, 6]?
Answer: 0.07%

Question: And the Related Substances: Total Impurities [2, 6]?
Answer: 0.36%

Question: And the “Water by KF” value [2, 6]?
Answer: 3.9 % w/w

Question: What about the Related Substances: 5-oxo [2, 7] of the same compound?
Answer: 0.14%

Question: And the Related Substances: Desflouro [2, 7]?
Answer: 0.05%

Question: What about the Related Substances: Diastereomer [2, 7] of the same compound?
Answer: 0.11%

Question: And the Related Substances: Lactone [2, 7]?
Answer: 0.09%

Question: And the Related Substances: Total Impurities [2, 7]?
Answer: 0.39%

Question: And the “Water by KF” value [2, 7]?
Answer: 4.2 % w/w

Question: And the Related Substances: 5-oxo ([2]; Initial)?
Answer: 0.07%

Question: What about the Related Substances: Desflouro ([2]; Initial) of the same compound?
Answer: 0.05%

Question: What about the Related Substances: Diastereomer ([2]; Initial) of the same compound?
Answer: 0.17%

Question: And the Related Substances: Total Impurities ([2]; Initial)?
Answer: 0.32%

Question: And the “Water by KF” value ([2]; Initial)?
Answer: 3.0 % w/w

Question: And the purity [3, 8]?
Answer: 99.64

Question: And the water content [3, 8]?
Answer: 7.81%

Question: What about the total impurities [3, 8] of the same compound?
Answer: 0.211

Question: What about the purity [3, 9] of the same compound?
Answer: 99.38%

Question: And the water content [3, 9]?
Answer: about 7.89

Question: And the total impurities [3, 9]?
Answer: 0.179

Question: What about the purity [3, 10] of the same compound?
Answer: 96.49

Question: What about the water content [3, 10] of the same compound?
Answer: 1.77%

Question: What about the total impurities [3, 10] of the same compound?
Answer: 2.099

Question: And the purity ([3]; kept in open air, initial)?
Answer: 99.38%

Question: And the water content ([3]; kept in open air, initial)?
Answer: about 7.89

Question: What about the total impurities ([3]; kept in open air, initial) of the same compound?
Answer: 0.179

Question: And the “stability during the storage” value ([3]; pitavastatin calcium which has become amorphous, reported in US '987 A1)?
Answer: very poor stability

Question: For `O=C(O)C[C@H](O)C[C@H](O)/C=C/c1c(C2CC2)nc2ccccc2c1-c1ccc(F)cc1` [pitavastatin], which potency ([1]; on the basis of reported data, dose-dependent) is on record?
Answer: equivalent to that of atorvastatin
